Measured values as given in paper PMC10294378, “Synthesis, α-Glucosidase inhibitory activity and docking studies of Novel Ethyl 1,2,3-triazol-4-ylmethylthio-5,6-diphenylpyridazine-4-carboxylate derivatives” (BMC Chemistry, 2023).
Entries after “also recorded” stand apart in the source; their conditions may differ.

Legend:
[1] = target: rat small intestine α-glucosidase; assay: Rat α-glucosidase assay (4-nitrophenol release from pNPG); format: biochemical; details: for IC50: rat small intestine α-glucosidase, means of three replicates ± standard deviation; for α-glucosidase inhibitory activity (in words): SAR discussion
Experimental: Based on the reported method of Lossow et al., rat small intestine α-glucosidase (EC 3.2.1.20) was prepared. The in-vitro activity was determined by the measurement of 4-nitrophenol which was released from para-nitrophenyl α-D glucopyranoside. The preparation of 200 µL was performed as follows: the enzyme solution (190 µL, 0.15 units/ml), different concentrations of target compounds (1, 10, 20, 50, 100, 500 and 1000 µM (5 µL), potassium phosphate buffer. Final compounds were dissolved in DMSO (not exceed than 5% of final volume) and pre-incubated at 37 °C, p-nitrophenyl glucopyranoside and then substrate (5 µL, 3 mM), was added to the enzyme solution and incubated for further one hour at 37 °C. Finally, by using Cytation 3 hybrid microplate reader (BioTek, USA) any change in the absorbance was measured at 405 nm. By using GraphPadprism 6.0 (SanDiego, California, USA) (https://www.graphpad.com/scientificsoftware/prism/) was used to obtain IC50 values of tested compounds.

α-glucosidase = assay: Kinetic analysis (Lineweaver-Burk and secondary plot); format: biochemical, rat
Experimental: Modes of enzyme inhibition were determined by recording the effect of various concentrations of the substrates 1, 2.5, 5 or 10 mM pNPG for α-glucosidase on Lineweaver–Burk plots using calculated Vmax and Km. For inhibition test of α-glucosidase: the concentrations applied for compounds 10k was 0.1, 1, 5 and 10 nM. Inhibition constants (Ki) were determined by depicting the secondary plot of Km against various concentrations of inhibitors.
The activity of […] (PNPG) was investigated in the presence and absence of compound 10k.

HDF = assay: Cytotoxicity against normal cell line; format: cell-based

| SMILES | IC50 [1] | melting point | mode of inhibition (α-glucosidase) | folds more active than standard drug (acarbose) ([1]; ratio of IC50 values against acarbose) | cytotoxicity (HDF) | α-glucosidase inhibitory activity (in words) [1] |
| --- | --- | --- | --- | --- | --- | --- |
| CCOC(=O)c1c(SCc2cn(CC(=O)Nc3ccccc3)nn2)nnc(-c2ccccc2)c1-c1ccccc1 [Compound 10a, Ethyl 3-(((1-(2-oxo-2-(phenylamino)ethyl)-1H-1,2,3-triazol-4-yl)methyl)thio)-5,6-diphenylpyridazine-4-carboxylate] | 35.6 ± 8.9 µM | 147 to 149 °C | – | – | – | – |
| CCOC(=O)c1c(SCc2cn(CC(=O)Nc3ccc(C)cc3)nn2)nnc(-c2ccccc2)c1-c1ccccc1 [Compound 10c, Ethyl 3-(((1-(2-oxo-2-(p-tolylamino)ethyl)-1H-1,2,3-triazol-4-yl)methyl)thio)-5,6-diphenylpyridazine-4-carboxylate] | > 250 µM | 207 to 209 °C | – | – | – | – |
| CCOC(=O)c1c(SCc2cn(CC(=O)Nc3ccc(F)cc3)nn2)nnc(-c2ccccc2)c1-c1ccccc1 [10 g, Ethyl 3-(((1-(2-((4-fluorophenyl)amino)-2-oxoethyl)-1H-1,2,3-triazol-4-yl)methyl)thio)-5,6-diphenylpyridazine-4-carboxylate] | 37.5 ± 7.2 µM | 211 to 213 °C | – | – | – | – |
| CCOC(=O)c1c(SCc2cn(CC(=O)Nc3ccc(Br)cc3)nn2)nnc(-c2ccccc2)c1-c1ccccc1 [Compound 10k, Ethyl 3-(((1-(2-((4-bromophenyl)amino)-2-oxoethyl)-1H-1,2,3-triazol-4-yl)methyl)thio)-5,6-diphenylpyridazine-4-carboxylate] | 1.7 ± 0.12 µM | 224 to 226 °C | uncompetitive | 100 folds | not toxic; also recorded: No toxicity | – |
| CCOC(=O)c1c(SCc2cn(CC(=O)Nc3ccccc3Cl)nn2)nnc(-c2ccccc2)c1-c1ccccc1 [10 h, Ethyl 3-(((1-(2-((2-chlorophenyl)amino)-2-oxoethyl)-1H-1,2,3-triazol-4-yl)methyl)thio)-5,6-diphenylpyridazine-4-carboxylate] | 14.9 ± 1.9 µM | 161 to 163 °C | – | – | – | – |
| CCOC(=O)c1c(SCc2cn(CC(=O)Nc3cccc(Cl)c3)nn2)nnc(-c2ccccc2)c1-c1ccccc1 [Compound 10i, Ethyl 3-(((1-(2-((3-chlorophenyl)amino)-2-oxoethyl)-1H-1,2,3-triazol-4-yl)methyl)thio)-5,6-diphenylpyridazine-4-carboxylate] | > 250 µM | 200 to 202 °C | – | – | – | no inhibitory activity |
| CCOC(=O)c1c(SCc2cn(CC(=O)Nc3ccc(Cl)c(Cl)c3)nn2)nnc(-c2ccccc2)c1-c1ccccc1 [10 m, Ethyl 3-(((1-(2-((3,4-dichlorophenyl)amino)-2-oxoethyl)-1H-1,2,3-triazol-4-yl)methyl)thio)-5,6-diphenylpyridazine-4-carboxylate] | 27.7 ± 3 µM | 166 to 168 °C | – | – | – | active |
| C[C@H]1O[C@H](O[C@H]2[C@H](O)[C@@H](O)[C@@H](O[C@H]3[C@H](O)[C@@H](O)C(O)O[C@@H]3CO)O[C@@H]2CO)[C@H](O)[C@@H](O)[C@@H]1N[C@H]1C=C(CO)[C@@H](O)[C@H](O)[C@H]1O (stereo partly drawn) [Acarbose, reference compound] | 170 ± 23.1 µM | – | – | – | – | – |
| CCOC(=O)c1c(SCc2cn(CC(=O)Nc3ccc(C(C)C)cc3)nn2)nnc(-c2ccccc2)c1-c1ccccc1 [Compound 10d, Ethyl 3-(((1-(2-((4-isopropylphenyl)amino)-2-oxoethyl)-1H-1,2,3-triazol-4-yl)methyl)thio)-5,6-diphenylpyridazine-4-carboxylate] | 86.5 ± 7.3 µM | 183 to 185 °C | – | – | – | – |
| CCOC(=O)c1c(SCc2cn(CC(=O)Nc3cc(Cl)cc(Cl)c3)nn2)nnc(-c2ccccc2)c1-c1ccccc1 [10 L, Ethyl 3-(((1-(2-((3,5-dichlorophenyl)amino)-2-oxoethyl)-1H-1,2,3-triazol-4-yl)methyl)thio)-5,6-diphenylpyridazine-4-carboxylate] | 14.1 ± 3.3 µM | 185 to 187 °C | – | – | – | active |
| CCOC(=O)c1c(SCc2cn(CC(=O)Nc3ccc(Cl)cc3)nn2)nnc(-c2ccccc2)c1-c1ccccc1 [Compound 10j, Ethyl 3-(((1-(2-((4-chlorophenyl)amino)-2-oxoethyl)-1H-1,2,3-triazol-4-yl)methyl)thio)-5,6-diphenylpyridazine-4-carboxylate] | 21 ± 5.3 µM | 195 to 197 °C | – | – | – | – |
| CCOC(=O)c1c(SCc2cn(CC(=O)Nc3cccc(OC)c3)nn2)nnc(-c2ccccc2)c1-c1ccccc1 [Compound 10e, Ethyl 3-(((1-(2-((3-methoxyphenyl)amino)-2-oxoethyl)-1H-1,2,3-triazol-4-yl)methyl)thio)-5,6-diphenylpyridazine-4-carboxylate] | 35.7 ± 3.9 µM | 155 to 157 °C | – | – | – | – |
| CCOC(=O)c1c(SCc2cn(CC(=O)Nc3ccc(OC)cc3)nn2)nnc(-c2ccccc2)c1-c1ccccc1 [Compound 10f, Ethyl 3-(((1-(2-((4-methoxyphenyl)amino)-2-oxoethyl)-1H-1,2,3-triazol-4-yl)methyl)thio)-5,6-diphenylpyridazine-4-carboxylate] | 25.2 ± 2.5 µM | 230 to 232 °C | – | – | – | – |
| CCOC(=O)c1c(SCc2cn(CC(=O)Nc3ccc([N+](=O)[O-])cc3)nn2)nnc(-c2ccccc2)c1-c1ccccc1 [Compound 10q, Ethyl 3-(((1-(2-((4-nitrophenyl)amino)-2-oxoethyl)-1H-1,2,3-triazol-4-yl)methyl)thio)-5,6-diphenylpyridazine-4-carboxylate] | 47.1 ± 5.6 µM | 221 to 223 °C | – | – | – | active |
| CCOC(=O)c1c(SCc2cn(CC(=O)Nc3cccc(C)c3)nn2)nnc(-c2ccccc2)c1-c1ccccc1 [Compound 10b, Ethyl 3-(((1-(2-oxo-2-(m-tolylamino)ethyl)-H-1,2,3-triazol-4-yl)methyl)thio)-5,6-diphenylpyridazine-4-carboxylate] | 58.9 ± 7.5 µM | – | – | – | – | – |
| CCOC(=O)c1c(SCc2cn(CC(=O)Nc3ccc([N+](=O)[O-])c(C)c3)nn2)nnc(-c2ccccc2)c1-c1ccccc1 [Compound 10r, Ethyl 3-(((1-(2-((3-methyl-4-nitrophenyl)amino)-2-oxoethyl)-1H-1,2,3-triazol-4-yl)methyl)thio)-5,6-diphenylpyridazine-4-carboxylate] | > 250 µM | 212 to 214 °C | – | – | – | no activity |
| CCOC(=O)c1c(SCc2cn(CC(=O)Nc3cccc([N+](=O)[O-])c3)nn2)nnc(-c2ccccc2)c1-c1ccccc1 [Compound 10p, Ethyl 3-(((1-(2-((3-nitrophenyl)amino)-2-oxoethyl)-1H-1,2,3-triazol-4-yl)methyl)thio)-5,6-diphenylpyridazine-4-carboxylate] | 84 ± 13.2 µM | 201 to 203 °C | – | – | – | – |
| CCOC(=O)c1c(SCc2cn(CC(=O)Nc3cccc(C#N)c3)nn2)nnc(-c2ccccc2)c1-c1ccccc1 [Compound 10n, Ethyl 3-(((1-(2-((3-cyanophenyl)amino)-2-oxoethyl)-1H-1,2,3-triazol-4-yl)methyl)thio)-5,6-diphenylpyridazine-4-carboxylate] | > 250 µM | 196 to 198 °C | – | – | – | – |
